# Results published in USRE49351E1, “Cytoprotective agent” (Biogen MA Inc., priority 2009, dated 2023).
# Test: modified H-ORAC (mH-ORAC) assay
# Format: biochemical
# Settings: acetone solution, acetone final concentration 1.25%
# Description: To study the free radical scavenging activity of a triprenyl phenol compound, the following H-ORAC (hydrophilic oxygen radical absorbance capacity) assay, and modified H-ORAC (mH-ORAC) assay were conducted.
# SMTP compounds evaluated by H-ORAC were used respectively in a form of a sodium salt aqueous solution, and the compounds evaluated by mH-ORAC were used respectively in a form of an acetone solution.
# In H-ORAC a test compound was diluted appropriately with a buffer solution (75 mM phosphate buffer solution, pH 7.4) and used for measurement. In mH-ORAC a test compound was diluted appropriately by a 50% (v/v) acetone solution, prepared by diluting an acetone solution with water, to prepare a solution of 40-fold the final concentration. […] As for the reference material Trolox, 500 μM/buffer solution was diluted appropriately with a buffer solution.
# To a 96-well microplate (transparent, flat bottom, black wall) 50 μL of a test compound solution or a Trolox solution was placed, and additionally 100 μL of a fluorescein 140 nM/buffer solution as a fluorescent substance was added (final concentration 70 nM), followed by incubation at 37° C. for […].
# As a free radical generator, 50 μL of a 48 mM/buffer solution of 2,2′-azobis(amidinopropane)dihydrochloride was added (final concentration 12 mM), and fluorescence intensity at fluorescence wavelength of 535 nm with excitation wavelength of 485 nm was measured at 2 min intervals for 90 min. The calibration curve was prepared between the Trolox final concentrations of 5 to 15 μM. The measurement was conducted by changing the concentration with n=3, and plotted on a diagram with time on the abscissa and the fluorescence intensity on the ordinate. Therewith evaluation was made using the value obtained by reducing the area under the curve for the blank from the area under the curve for the sample. The result was expressed as an equivalent to Trolox.
smiles,measurement,value
CC(C)=CCC/C(C)=C/CC[C@@]1(C)Oc2c(c(O)cc3c2CN(CCC[C@@H](C(=O)O)N2Cc4c(cc(O)c5c4O[C@](C)(CC/C=C(\C)CCC=C(C)C)[C@@H](O)C5)C2=O)C3=O)C[C@@H]1O [SMTP-7],"free radical scavenging activity, Trolox equivalent",1.82 ± 0.27 molTE/mol
